Measurements as given in the supplement of paper PMC11451515.

Test system: P12-Ichikawa
Assay: cell viability relative to DMSO control; higher = less cytotoxic
Conditions: 48 h
In short: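 NOMO1 or SEM (500 cells/well) or P12-Ichikawa (1000 cells/well) leukemia cells were adapted for at least four passages in each medium. They were seeded in 1536-well plates (5 μl) and pin-dosed with library compounds in DMSO over an 11-point threefold series, 47 μM to 0.79 nM. CellTiter-Glo One luminescence was read after 48 h at 37°C. Viability is the per-plate percentage relative to DMSO wells, with cell-free wells as background.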

[1] = HPLM + 10% dialyzed FBS, 0.000781 µM
[2] = HPLM + 10% dialyzed FBS, 0.00234 µM
[3] = HPLM + 10% dialyzed FBS, 0.00702 µM
[4] = HPLM + 10% dialyzed FBS, 0.0211 µM
[5] = HPLM + 10% dialyzed FBS, 0.0632 µM
[6] = HPLM + 10% dialyzed FBS, 0.19 µM
[7] = HPLM + 10% dialyzed FBS, 0.569 µM
[8] = HPLM + 10% dialyzed FBS, 1.71 µM
[9] = HPLM + 10% dialyzed FBS, 5.12 µM
[10] = HPLM + 10% dialyzed FBS, 15.4 µM
[11] = HPLM + 10% dialyzed FBS, 46.1 µM
[12] = RPMI 5 mM glucose + 10% FBS, 0.000781 µM
[13] = RPMI 5 mM glucose + 10% FBS, 0.00234 µM
[14] = RPMI 5 mM glucose + 10% FBS, 0.00702 µM
[15] = RPMI 5 mM glucose + 10% FBS, 0.0211 µM
[16] = RPMI 5 mM glucose + 10% FBS, 0.0632 µM
[17] = RPMI 5 mM glucose + 10% FBS, 0.19 µM
[18] = RPMI 5 mM glucose + 10% FBS, 0.569 µM
[19] = RPMI 5 mM glucose + 10% FBS, 1.71 µM
[20] = RPMI 5 mM glucose + 10% FBS, 5.12 µM
[21] = RPMI 5 mM glucose + 10% FBS, 15.4 µM
[22] = RPMI 5 mM glucose + 10% FBS, 46.1 µM
[23] = RPMI 5 mM glucose + 10% dialyzed FBS, 0.000781 µM
[24] = RPMI 5 mM glucose + 10% dialyzed FBS, 0.00234 µM
[25] = RPMI 5 mM glucose + 10% dialyzed FBS, 0.00702 µM
[26] = RPMI 5 mM glucose + 10% dialyzed FBS, 0.0211 µM
[27] = RPMI 5 mM glucose + 10% dialyzed FBS, 0.0632 µM
[28] = RPMI 5 mM glucose + 10% dialyzed FBS, 0.19 µM
[29] = RPMI 5 mM glucose + 10% dialyzed FBS, 0.569 µM
[30] = RPMI 5 mM glucose + 10% dialyzed FBS, 1.71 µM
[31] = RPMI 5 mM glucose + 10% dialyzed FBS, 5.12 µM
[32] = RPMI 5 mM glucose + 10% dialyzed FBS, 15.4 µM
[33] = RPMI 5 mM glucose + 10% dialyzed FBS, 46.1 µM

Compound | cell viability [1] [%] | cell viability [2] [%] | cell viability [3] [%] | cell viability [4] [%] | cell viability [5] [%] | cell viability [6] [%] | cell viability [7] [%] | cell viability [8] [%] | cell viability [9] [%] | cell viability [10] [%] | cell viability [11] [%] | cell viability [12] [%] | cell viability [13] [%] | cell viability [14] [%] | cell viability [15] [%] | cell viability [16] [%] | cell viability [17] [%] | cell viability [18] [%] | cell viability [19] [%] | cell viability [20] [%] | cell viability [21] [%] | cell viability [22] [%] | cell viability [23] [%] | cell viability [24] [%] | cell viability [25] [%] | cell viability [26] [%] | cell viability [27] [%] | cell viability [28] [%] | cell viability [29] [%] | cell viability [30] [%] | cell viability [31] [%] | cell viability [32] [%] | cell viability [33] [%]
C[C@H]1C[C@H]2[C@@H]3CCC4=CC(=O)C=C[C@]4(C)[C@@]3(F)[C@@H](O)C[C@]2(C)[C@@]1(O)C(=O)CO | 114 | 119 | 118 | 109 | 98.1 | 78.3 | 73.9 | 71.9 | 71 | 65.5 | 65.8 | 121 | 126 | 116 | 108 | 99.8 | 73.1 | 65.1 | 60.1 | 51.7 | 55.6 | 43.5 | 110 | 119 | 116 | 101 | 81.1 | 59.9 | 56 | 48.2 | 46 | 41.5 | 42.5
CC[C@H]1/C=C\C=C/C[C@@H](C)[C@H](O)[C@@](C)(O)C(=O)[C@@H](C)[C@H](O)[C@@H](C)C(=O)[C@@H](C)[C@H](O)[C@@H](C)/C=C/C(=O)O[C@@H]2[C@H](C)[C@H](CC1)O[C@]1(CC[C@H](C)[C@H](C[C@@H](C)O)O1)[C@H]2C | 91.4 | 102 | 98.8 | 102 | 89.5 | 107 | 109 | 67.4 | 57.1 | 41.4 | 4.23 | 90.5 | 96.7 | 75 | 110 | 94.1 | 109 | 108 | 64.4 | 58.9 | 53.7 | 5.47 | 84.9 | 102 | 92.7 | 89.9 | 101 | 99.8 | 92.2 | 59.1 | 45.9 | 41.8 | 5.21
Clc1cc(Cl)cc(CNc2ncncc2-c2ccc3c(c2)OCO3)c1 | 93.7 | 93.6 | 92.6 | 97.4 | 100 | 90.3 | 93.8 | 97.5 | 92.6 | 94 | 10.4 | 97.6 | 92.7 | 91.3 | 93.8 | 96.3 | 93.1 | 86.6 | 94.2 | 89.9 | 86 | 47.2 | 87.6 | 96.6 | 102 | 96.1 | 95.1 | 91.7 | 92.7 | 102 | 97.9 | 99 | 61.1
CC(=O)Nc1ccc([C@H](C)C(=O)Nc2ncc(C(C)C)s2)cc1 | 97.9 | 101 | 94.5 | 98.4 | 100 | 92.1 | 96.7 | 94.4 | 89.9 | 24.6 | 5.24 | 95.6 | 96.9 | 101 | 95.1 | 93.3 | 93.8 | 97.6 | 107 | 101 | 26 | 6.22 | 99.3 | 89.5 | 97.2 | 99.5 | 110 | 101 | 99.4 | 99.7 | 83.7 | 22.8 | 5.31
O=C(CO)N1CCC(c2n[nH]c(-c3ccc(Cl)cc3)c2-c2ccncn2)CC1 | 119 | 104 | 113 | 112 | 113 | 109 | 105 | 100 | 97.7 | 55.7 | 68.4 | 117 | 112 | 118 | 122 | 114 | 113 | 114 | 110 | 87.8 | 24 | 58.5 | 122 | 116 | 114 | 116 | 117 | 114 | 113 | 101 | 97.7 | 21.7 | 55.4
Cc1nccn1CC1CCc2c(c3ccccc3n2C)C1=O (stereo not given) | 124 | 125 | 121 | 128 | 127 | 127 | 111 | 106 | 103 | 112 | 108 | – | – | – | – | – | – | – | – | – | – | – | 115 | 124 | 124 | 125 | 126 | 112 | 117 | 118 | 116 | 114 | 105
Cc1cccc(C)c1OCC(=O)N[C@@H](Cc1ccccc1)[C@@H](O)C[C@H](Cc1ccccc1)NC(=O)[C@H](C(C)C)N1CCCNC1=O | 99.5 | 96.1 | 98.2 | 102 | 95.7 | 97 | 91.9 | 89.1 | 90.2 | 86.2 | 61.8 | 98.5 | 101 | 93.9 | 96 | 102 | 99.6 | 97.4 | 91.7 | 91.3 | 87.1 | 56.8 | 91.6 | 87.8 | 94.1 | 88.7 | 91.2 | 90.1 | 93.6 | 79.2 | 85.6 | 83.9 | 54.8
